In the supplement of paper PMC10307832:

What was measured:
Assay in all cases: relative viability (nuclei count vs DMSO), 5 days (fraction); higher = more cells survive
[1] = test system: SW 1573
Method in brief: (§1)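 For relative viability, nuclei counts in treated wells were divided by those in vehicle wells. Lung cancer cell lines had been pin-tool dosed in 1536-well plates the day after seeding and cultured for 5 days, then fixed and stained in one step (final 0.05% Triton X-100, 1% formaldehyde, 1 ug/ml Hoechst) and imaged at 4×. Doses were one drug alone or a fixed anchor-drug dose plus five library-drug doses (not always all listed) in √10 steps, and values are duplicate-plate medians.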

[2] = test system: NCI-H2126
Method in brief: as §1

[3] = test system: NCI-H647
Method in brief: as §1

[4] = test system: NCI-H2085
Method in brief: as §1

[5] = test system: NCI-H1734
Method in brief: as §1

[6] = test system: EMC-BAC-2
Method in brief: as §1

[7] = test system: PC-14
Method in brief: as §1

[8] = test system: NCI-H2023
Method in brief: as §1

[9] = test system: LXF-289
Method in brief: as §1

[10] = test system: NCI-H1915
Method in brief: as §1

[11] = test system: NCI-H1563
Method in brief: as §1

[12] = test system: SK-LU-1
Method in brief: as §1

[13] = test system: NCI-H661
Method in brief: as §1

[14] = test system: H3255
Method in brief: as §1

[15] = test system: NCI-H1993
Method in brief: as §1

[16] = test system: EPLC-272H
Method in brief: as §1

[17] = test system: NCI-H2347
Method in brief: as §1

[18] = test system: HOP-62
Method in brief: as §1

[19] = test system: NCI-H727
Method in brief: as §1

[20] = test system: NCI-H322M
Method in brief: as §1

[21] = test system: LCLC-97TM1
Method in brief: as §1

[22] = test system: NCI-H2009
Method in brief: as §1

COc1nc(C)cnc1NS(=O)(=O)c1cccnc1-c1ccc(-c2nnco2)cc1 [Zibotentan] + CS(=O)(=O)N1CCN(Cc2cc3nc(-c4cccc5[nH]ncc45)nc(N4CCOCC4)c3s2)CC1 [Pictilisib] (partner 1 µM)
relative viability ([1]; first compound 0.08 µM): 0.53 | relative viability ([1]; first compound 0.253 µM): 0.533 | relative viability ([1]; first compound 0.8 µM): 0.557 | relative viability ([1]; first compound 2.53 µM): 0.478 | relative viability ([2]; first compound 0.08 µM): 0.525 | relative viability ([2]; first compound 0.253 µM): 0.525 | relative viability ([2]; first compound 0.8 µM): 0.465 | relative viability ([2]; first compound 2.53 µM): 0.474 | relative viability ([3]; first compound 0.08 µM): 0.391 | relative viability ([3]; first compound 0.253 µM): 0.355 | relative viability ([3]; first compound 0.8 µM): 0.41 | relative viability ([3]; first compound 2.53 µM): 0.388 | relative viability ([4]; first compound 0.08 µM): 0.477 | relative viability ([4]; first compound 0.253 µM): 0.495 | relative viability ([4]; first compound 0.8 µM): 0.477 | relative viability ([4]; first compound 2.53 µM): 0.517 | relative viability ([5]; first compound 0.08 µM): 0.516 | relative viability ([5]; first compound 0.253 µM): 0.442 | relative viability ([5]; first compound 0.8 µM): 0.461 | relative viability ([5]; first compound 2.53 µM): 0.43 | relative viability ([6]; first compound 0.08 µM): 0.568 | relative viability ([6]; first compound 0.253 µM): 0.529 | relative viability ([6]; first compound 0.8 µM): 0.56 | relative viability ([6]; first compound 2.53 µM): 0.56 | relative viability ([7]; first compound 0.08 µM): 0.91 | relative viability ([7]; first compound 0.253 µM): 0.8 | relative viability ([7]; first compound 0.8 µM): 0.793 | relative viability ([7]; first compound 2.53 µM): 0.628 | relative viability ([8]; first compound 0.08 µM): 0.279 | relative viability ([8]; first compound 0.253 µM): 0.127 | relative viability ([8]; first compound 0.8 µM): 0.226 | relative viability ([8]; first compound 2.53 µM): 0.26 | relative viability ([9]; first compound 0.08 µM): 0.774 | relative viability ([9]; first compound 0.253 µM): 0.739 | relative viability ([9]; first compound 0.8 µM): 0.814 | relative viability ([9]; first compound 2.53 µM): 0.783 | relative viability ([10]; first compound 0.08 µM): 1.01 | relative viability ([10]; first compound 0.253 µM): 0.955 | relative viability ([10]; first compound 0.8 µM): 0.873 | relative viability ([10]; first compound 2.53 µM): 0.96 | relative viability ([11]; first compound 0.08 µM): 0.635 | relative viability ([11]; first compound 0.253 µM): 0.594 | relative viability ([11]; first compound 0.8 µM): 0.652 | relative viability ([11]; first compound 2.53 µM): 0.639 | relative viability ([12]; first compound 0.08 µM): 0.603 | relative viability ([12]; first compound 0.253 µM): 0.456 | relative viability ([12]; first compound 0.8 µM): 0.603 | relative viability ([12]; first compound 2.53 µM): 0.54 | relative viability ([13]; first compound 0.08 µM): 0.43 | relative viability ([13]; first compound 0.253 µM): 0.302 | relative viability ([13]; first compound 0.8 µM): 0.391 | relative viability ([13]; first compound 2.53 µM): 0.314 | relative viability ([14]; first compound 0.08 µM): 0.467 | relative viability ([14]; first compound 0.253 µM): 0.485 | relative viability ([14]; first compound 0.8 µM): 0.467 | relative viability ([14]; first compound 2.53 µM): 0.549 | relative viability ([15]; first compound 0.253 µM): 0.736 | relative viability ([15]; first compound 0.8 µM): 0.748 | relative viability ([15]; first compound 2.53 µM): 0.796 | relative viability ([16]; first compound 0.08 µM): 0.363 | relative viability ([16]; first compound 0.253 µM): 0.289 | relative viability ([16]; first compound 0.8 µM): 0.239 | relative viability ([16]; first compound 2.53 µM): 0.297 | relative viability ([17]; first compound 0.08 µM): 0.601 | relative viability ([17]; first compound 0.253 µM): 0.547 | relative viability ([17]; first compound 0.8 µM): 0.621 | relative viability ([17]; first compound 2.53 µM): 0.769 | relative viability ([18]; first compound 0.08 µM): 0.687 | relative viability ([18]; first compound 0.253 µM): 0.769 | relative viability ([18]; first compound 0.8 µM): 0.752 | relative viability ([18]; first compound 2.53 µM): 0.851 | relative viability ([19]; first compound 0.08 µM): 0.567 | relative viability ([19]; first compound 0.253 µM): 0.38 | relative viability ([19]; first compound 0.8 µM): 0.395 | relative viability ([19]; first compound 2.53 µM): 0.483 | relative viability ([20]; first compound 0.08 µM): 0.521 | relative viability ([20]; first compound 0.253 µM): 0.559 | relative viability ([20]; first compound 0.8 µM): 0.533 | relative viability ([20]; first compound 2.53 µM): 0.506 | relative viability ([21]; first compound 0.08 µM): 0.214 | relative viability ([21]; first compound 0.253 µM): 0.167 | relative viability ([21]; first compound 0.8 µM): 0.176 | relative viability ([21]; first compound 2.53 µM): 0.176 | relative viability ([22]; first compound 0.08 µM): 0.889 | relative viability ([22]; first compound 0.253 µM): 0.774 | relative viability ([22]; first compound 0.8 µM): 0.822 | relative viability ([22]; first compound 2.53 µM): 0.886
